This note sets out measurements from paper PMC12405480, “Endogenous ligands of bovine FFAR2/GPR43 display distinct pharmacological properties” (Frontiers in Cell and Developmental Biology, 2025).

The structures appear in SMILES notation.

For the first assay, the target named is T1, bFFAR2 (bovine FFAR2/GPR43) (Bos taurus, UniProt A0ACM8QIU6).
T1 construct: full-length synthetic cDNA, N-terminal FLAG tag; transiently expressed in HEK293A cells
T1 sequence (A0ACM8QIU6 1-329): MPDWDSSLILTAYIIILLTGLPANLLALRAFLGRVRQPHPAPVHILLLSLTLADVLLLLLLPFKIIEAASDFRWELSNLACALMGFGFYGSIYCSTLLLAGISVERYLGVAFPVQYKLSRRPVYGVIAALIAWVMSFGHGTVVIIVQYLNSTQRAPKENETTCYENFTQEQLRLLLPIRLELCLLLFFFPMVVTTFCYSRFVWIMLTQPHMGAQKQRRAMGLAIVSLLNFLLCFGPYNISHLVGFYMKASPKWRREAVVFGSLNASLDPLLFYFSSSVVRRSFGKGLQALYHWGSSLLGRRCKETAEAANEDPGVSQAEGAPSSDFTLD
As to the kind of experiment: SRE luciferase reporter gene assay, HEK293A expressing bFFAR2. Type of assay: cell-based.
Details: not given
An excerpt: SRE luciferase reporter gene assay, HEK293A expressing bFFAR2 on bFFAR2 (bovine FFAR2/GPR43)
For orientation: In a reporter assay the amount or activity of a reporter protein is the signal.
Take `CC(C)C(=O)O` [2MP, 2-methyl-propanoic acid]: a half-maximal response (EC50) required 234 µM.

A further assay concerns the target T1, bFFAR2 (bovine FFAR2/GPR43). As to the kind of experiment: BRET, mini-Gαi recruitment to bFFAR2-Rluc8, HEK293A. Type of assay: cell-based.
Details: not given
From the text: BRET, mini-Gαi recruitment to bFFAR2-Rluc8, HEK293A on bFFAR2 (bovine FFAR2/GPR43)
For `CCCC(=O)O` [C4:0], a half-maximal response (EC50) required 129 µM.
On the same count and under the same terms, for `CC(=O)O` [C2:0] the value was 9770 µM.
Regarding `CCC(=O)O` [C3:0], the EC50 (as a rule, the midpoint of the concentration-response curve) is 977 µM.
The same measure, in the same setting: for `CCCCCCC(=O)O` [C7:0] the value was 126 µM; for `CC(C)CC(=O)O` [3MB, 3-methyl-butanoic acid], 75.9 µM; for `CCCCCC(=O)O` [C6:0], 72.4 µM.
Same read-out and setting: the figure for `CCCCC(=O)O` [C5:0] is 61.7 µM.

Still in this assay, the particulars now being: partial agonist; AUC over 10 min; -log10 of EC50; unreliable (EC50 above the 1 mM dose of Figure 1).
Compound `CCCCCCCC(=O)O` [C8:0] had a mGαi recruitment of 2.57 ± 0.40.
